Where a name gives a salt, the structure may show the parent alone. Some results are limits rather than exact numbers.

We go through 44 compounds from US7803801B2, “Aminopyridine compounds having Syk inhibitory activity” (Japan Tobacco, Inc., priority 2005, dated 2010).

For the experiment, the target named is GST-Syk Full Protein (human) (Homo sapiens, UniProt P43405). As to the kind of experiment: Syk kinase inhibition test (HTRF method). The format is biochemical. The settings on record: Tables 1-x, compounds A; read-out: sykHTRF ave IC50. The essentials:
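HTRF read-out: after EDTA termination and 1 h with XL665-streptavidin and Eu-anti-phosphotyrosine, the 665/620 nm ratio was measured. The reaction ran 30 min at 20–25 °C with final 6.4 nM human GST-Syk, 250 nM biotinylated peptide, 100 μM ATP, pH 7.0 HEPES buffer, 2% DMSO.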
In the case of `Cc1ccnc(Nc2cccc(-c3cnc(N(C)C4CCN(C(=O)C5CCC(O)CC5)CC4)s3)n2)c1` (centres unmarked) [Compound A-672], the IC50 (as a rule, the concentration needed to halve the response being measured) lay within 100 to 1000 nM.

In the case of `Cc1ccnc(Nc2cccc(-c3cnc(N(CCO)C4CCCCC4)s3)n2)c1` [Compound A-673], the IC50 was in the range of 100 to 1000 nM.

As for `CNC(=O)C(C(C)C)N(C)c1ncc(-c2cccc(Nc3cc(C)ccn3)n2)s1` (centres unmarked) [Compound A-674], the IC50 fell in the range of 100 to 1000 nM.

In the case of `Cc1ccnc(Nc2cccc(-c3cnc(N(C)C(C(=O)N4CCC(O)CC4)C(C)C)s3)n2)c1` (centres unmarked) [Compound A-675], the IC50 lay in the range of 100 to 1000 nM.

Turning to `Cc1ccnc(Nc2cccc(-c3cnc(N(C)C(C(=O)NCC(F)(F)F)C(C)C)s3)n2)c1` (centres unmarked) [Compound A-676], the IC50 fell in the range of 100 to 1000 nM.

As to `Cc1ccnc(Nc2cccc(-c3cnc(N4CCC(CCO)CC4)s3)n2)c1` [Compound A-677, 2-(1-{5-[6-(4-methylpyridin-2-ylamino)pyridin-2-yl]thiazol-2-yl}piperidin-4-yl)ethanol], the IC50 is under 100 nM.

Consider `Cc1ccnc(Nc2cccc(-c3cnc(N(CCCCCO)C(C)C)s3)n2)c1` [Compound A-678, 5-(N-isopropyl-N-{5-[6-(4-methylpyridin-2-ylamino)pyridin-2-yl]thiazol-2-yl}amino)pentan-1-ol], for which the IC50 was under 100 nM.

`O=C(O)CC1CCN(c2ncc(-c3cccc(Nc4ncccn4)n3)s2)CC1` [Compound A-679]: the concentration for half-maximal inhibition (IC50) is 100 to 1000 nM.

Take `O=C(O)CC1CCN(c2ncc(-c3cccc(Nc4cnccn4)n3)s2)CC1` [Compound A-680, (1-{5-[6-(pyrazin-2-ylamino)pyridin-2-yl]thiazol-2-yl}piperidin-4-yl)acetic acid]: the half-maximal inhibitory concentration (IC50) is under 100 nM.

Consider `O=C(O)CC1CCN(c2ncc(-c3cccc(Nc4cc(CCO)ccn4)n3)s2)CC1` [Compound A-681, [1-(5-{6-[4-(2-hydroxyethyl)pyridin-2-ylamino]pyridin-2-yl}thiazol-2-yl)piperidin-4-yl]acetic acid dihydrochloride], for which the IC50 is under 100 nM.

For `O=C(O)CCC1CCN(c2ncc(-c3cccc(Nc4ccccn4)n3)s2)CC1` [Compound A-682], the IC50 was 100 to 1000 nM.

`O=C(O)C1CCN(c2ncc(-c3cccc(Nc4ccccn4)n3)s2)CC1` [Compound A-683]: the IC50 lay within 100 to 1000 nM.

`Cc1ccnc(Nc2cccc(-c3cnc(N4CCC(C(F)C(=O)O)CC4)s3)n2)c1` (centres unmarked) [Compound A-684, fluoro-(1-{5-[6-(4-methylpyridin-2-ylamino)pyridin-2-yl]thiazol-2-yl}piperidin-4-yl)acetic acid]: the half-inhibitory concentration (IC50) was under 100 nM.

For `Cc1ccnc(Nc2cccc(-c3cnc(CN4CCC(C(N)=O)CC4)s3)n2)c1` [Compound A-685, 1-{5-[6-(4-methylpyridin-2-ylamino)pyridin-2-yl]thiazol-2-ylmethyl}piperidine-4-carboxamide], the IC50 is under 100 nM.

As to `CNC(=O)C1CCN(Cc2ncc(-c3cccc(Nc4cc(C)ccn4)n3)s2)CC1` [Compound A-686], the IC50 lay within 100 to 1000 nM.

As to `CNC(=O)CN(C)Cc1ncc(-c2cccc(Nc3cc(C)ccn3)n2)s1` [Compound A-687], the IC50 lay in the range of 100 to 1000 nM.

Take `Cc1ccnc(Nc2cccc(-c3cnc(CN(C)CC(=O)N(C)C)s3)n2)c1` [Compound A-688]: the IC50 was in the range of 100 to 1000 nM.

Consider `Cc1ccnc(Nc2cccc(-c3cnc(CN(C)CC(=O)NCC(C)(C)C)s3)n2)c1` [Compound A-689], for which the IC50 fell in the range of 100 to 1000 nM.

Regarding `NC(=O)[C@@H]1CCCN1c1ncc(-c2cccc(Nc3ccccn3)n2)s1` [Compound A-690], the IC50 lay in the range of 100 to 1000 nM.

With `CN(c1ncc(-c2cccc(Nc3ccccn3)n2)s1)C(C)(C)c1ccc(C(=O)O)cc1` [Compound A-691], the IC50 was in the range of 100 to 1000 nM.

For the compound `CCc1ccnc(Nc2cccc(-c3cnc(N4CCC(CC(=O)O)CC4)s3)n2)c1` [Compound A-692, (1-{5-[6-(4-ethylpyridin-2-ylamino)pyridin-2-yl]thiazol-2-yl}piperidin-4-yl)acetic acid dihydrochloride], the IC50 is under 100 nM.

Consider `Cc1ccnc(Nc2cccc(-c3cnc(NC(C)C)s3)n2)c1` [Compound A-693, N-isopropyl-N-{5-[6-(4-methylpyridin-2-ylamino)pyridin-2-yl]thiazol-2-yl}amine], for which the IC50 is under 100 nM.

With `Cc1ccnc(Nc2cccc(-c3cnc(NCc4ccccc4)s3)n2)c1` [Compound A-694], the IC50 is 100 to 1000 nM.

For the compound `Cc1ccnc(Nc2cccc(-c3cnc(NCCN4CCOCC4)s3)n2)c1` [Compound A-695, N-{5-[6-(4-methylpyridin-2-ylamino)pyridin-2-yl]thiazol-2-yl}-N-(2-morpholin-4-ylethyl)amine], the IC50 is under 100 nM.

As to `Cc1ccnc(Nc2cccc(-c3cnc(N(C)C4CCN(C(=O)NC5CCCCC5)CC4)s3)n2)c1` [Compound A-696], the IC50 lay within 100 to 1000 nM.

With `Cc1ccnc(Nc2cccc(-c3cnc(CN(C)CC(N)=O)s3)n2)c1` [Compound A-697, 2-(N-methyl-N-{5-[6-(4-methylpyridin-2-ylamino)pyridin-2-yl]thiazol-2-ylmethyl}amino)acetamide], the IC50 is under 100 nM.

On to `CCC(C(=O)O)C1CCN(c2ncc(-c3cccc(Nc4cc(C)ccn4)n3)s2)CC1` (centres unmarked) [Compound A-698, 2-(1-{5-[6-(4-methylpyridin-2-ylamino)pyridin-2-yl]thiazol-2-yl}piperidin-4-yl)butyric acid], for which the IC50 was under 100 nM.

Consider `CN(C[C@H]1CC[C@H](C(=O)O)CC1)c1ncc(-c2cccc(Nc3ccccn3)n2)s1` [Compound A-699, trans-4-[(N-methyl-N-{5-[6-(pyridin-2-ylamino)pyridin-2-yl]thiazol-2-yl}amino)methyl]cyclohexanecarboxylic acid dihydrochloride], for which the IC50 is under 100 nM.

Consider `O=C(O)CC1CCN(c2ncc(-c3cccc(Nc4cc(OCC(F)(F)F)ccn4)n3)s2)CC1` [Compound A-700, [1-(5-{6-[4-(2,2,2-trifluoroethoxy)pyridin-2-ylamino]pyridin-2-yl}thiazol-2-yl)piperidin-4-yl]acetic acid dihydrochloride], for which the IC50 is under 100 nM.

In the case of `Cc1ccnc(Nc2cccc(-c3cnc(NCCc4ccccc4)s3)n2)c1` [Compound A-701], the IC50 was in the range of 100 to 1000 nM.

On to `Cc1ccnc(Nc2cccc(-c3cnc(N(C)CC(C)(C)O)s3)n2)c1` [Compound A-702, 2-methyl-1-(N-methyl-N-{5-[6-(4-methylpyridin-2-ylamino)pyridin-2-yl]thiazol-2-yl}amino)propan-2-ol], for which the IC50 was under 100 nM.

Turning to `Cc1ccnc(Nc2cccc(-c3cnc(N(C)C4CCN(C(=O)N5CCC(O)CC5)CC4)s3)n2)c1` [Compound A-703], the IC50 lay within 100 to 1000 nM.

Consider `Cc1ccnc(Nc2cccc(-c3cnc(N4CCCC(CCC(=O)O)C4)s3)n2)c1` (centres unmarked) [Compound A-704, 3-(1-{5-[6-(4-methylpyridin-2-ylamino)pyridin-2-yl]thiazol-2-yl}piperidin-3-yl)propionic acid], for which the IC50 was under 100 nM.

For `Cc1ccnc(Nc2cccc(-c3cnc(N(C)C4CCN(C(=O)NCCO)CC4)s3)n2)c1` [Compound A-705, N-(2-hydroxyethyl)-4-(N′-methyl-N′-{5-[6-(4-methylpyridin-2-ylamino)pyridin-2-yl]thiazol-2-yl}amino)piperidine-1-carboxamide], the IC50 was under 100 nM.

Turning to `CN(CCO)c1ncc(-c2cccc(Nc3ccccn3)n2)s1` [Compound A-706], the IC50 lay within 100 to 1000 nM.

Regarding `CC(C)(C(=O)O)C1CCN(c2ncc(-c3cccc(Nc4cnccn4)n3)s2)CC1` [Compound A-707, 2-methyl-2-(1-{5-[6-(pyrazin-2-ylamino)pyridin-2-yl]thiazol-2-yl}piperidin-4-yl)propionic acid dihydrochloride], the IC50 is under 100 nM.

Turning to `COc1ccc(C)cc1Nc1cccc(-c2cnc(N3CCC(CC(=O)O)CC3)s2)n1` [Compound A-708], the IC50 lay in the range of 100 to 1000 nM.

Consider `CC(=O)N(Cc1ccc(C(=O)O)cc1)Cc1ncc(-c2cccc(Nc3cc(C)ccn3)n2)s1` [Compound A-709, 4-[(N-acetyl-N-{5-[6-(4-methylpyridin-2-ylamino)pyridin-2-yl]thiazol-2-ylmethyl}amino)methyl]benzoic acid], for which the IC50 is under 100 nM.

Take `CC(C)(C)c1ccnc(Nc2cccc(-c3cnc(N4CCC(CC(=O)O)CC4)s3)n2)c1` [Compound A-710, (1-{5-[6-(4-tert-butylpyridin-2-ylamino)pyridin-2-yl]thiazol-2-yl}piperidin-4-yl)acetic acid dihydrochloride]: the IC50 was under 100 nM.

As to `CC(C)c1ccnc(Nc2cccc(-c3cnc(N4CCC(CC(=O)O)CC4)s3)n2)c1` [Compound A-711, (1-{5-[6-(4-isopropylpyridin-2-ylamino)pyridin-2-yl]thiazol-2-yl}piperidin-4-yl)acetic acid dihydrochloride], the IC50 was under 100 nM.

Turning to `Cc1ccnc(Nc2cccc(-c3cnc(N4CCC5(CC4)CC5C(=O)O)s3)n2)c1` (centres unmarked) [Compound A-712, 6-{5-[6-(4-methylpyridin-2-ylamino)pyridin-2-yl]thiazol-2-yl}-6-azaspiro[2.5]octane-1-carboxylic acid], the IC50 is under 100 nM.

As to `CC(C)(C(=O)O)C1CCN(c2ncc(-c3cccc(Nc4cc(CCO)ccn4)n3)s2)CC1` [Compound A-713, 2-[1-(5-{6-[4-(2-hydroxyethyl)pyridin-2-ylamino]pyridin-2-yl}thiazol-2-yl)piperidin-4-yl]-2-methylpropionic acid], the IC50 is under 100 nM.

As for `CC(C)(C(=O)O)C1CCN(c2ncc(-c3cccc(Nc4ccccn4)n3)s2)CC1` [Compound A-714, 2-methyl-2-(1-{5-[6-(pyridin-2-ylamino)pyridin-2-yl]thiazol-2-yl}piperidin-4-yl)propionic acid], the IC50 was under 100 nM.

On to `O=C(O)C(F)C1CCN(c2ncc(-c3cccc(Nc4cnccn4)n3)s2)CC1` (centres unmarked) [Compound A-715, fluoro-(1-{5-[6-(pyrazin-2-ylamino)pyridin-2-yl]thiazol-2-yl}piperidin-4-yl)acetic acid dihydrochloride], for which the IC50 is under 100 nM.
